# Tests used:
# [1] = tested on: human iPSC-derived microglia; assay: Cytokine release assay in LPS-stimulated iPSC-derived microglia; format: cell-based; details: 20 μM, panel of 36 cytokines, p<0.05
# Procedure: Cytokine release assay. […] Subsequently, media cleared of cells and debris was collected, snap-frozen and stored at −80° C. until processing with the Human Cytokine Array kit (R&D Systems, Catalog #ARY005). Briefly, media was diluted in Array Buffer 4 and incubated with a cocktail of biotinylated detection antibodies for 1 h at room temperature with rocking. The resulting immunocomplexes were incubated with nitrocellulose membranes spotted with capture antibodies overnight at 4° C. (see below for full list of targets). The membranes were washed 4× with Wash Buffer, then incubated with IRDye 800CW Streptavidin for 30 minutes at room temperature (1:2000 in Array Buffer 5, LI-COR #926-32230). The membranes were washed 4× and imaged with an Odyssey CLx instrument. Intensity for each spot was quantified with ImageStudio. Technical duplicate values for each target were averaged, and differential cytokine release by microglia exposed to LPS+vehicle versus vehicle only was determined (n=2 biological replicates, two-tailed t-tests, P<0.05).
# IL-6 secretion = IL-6 secretion assay in astrocytes (Promega Lumit IL-6 kit); format: cell-based, human; details: astrocytes and microglia; FIG. 2D, FIG. 1C
# Summary of the method: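 Human astrocytes (HCAs), 20,000 per well, cultured 2-3 days, then stimulated with 10 ng/mL IL1B alongside compound dilution series. IL-6 secreted over 5 h quantified by Lumit IL-6 luminescent immunoassay.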
# IκBα = assay: Immunoblot of IκBα and pIκB S32 in inflamed astrocytes; format: cell-based, human; details: 6 hours
# Procedure: Western blotting. For drug treatment assays, cells were treated with vehicle (DMSO) or 20 μM compound and stimulated with IL1B 10 ng/mL for 1 h, 6 h, or 24 h. Cells were dissociated with 1:1 Accutase:papain for 3 min at rt, pelleted for 5 min at 800 g, and washed twice with cold DPBS. Pellets were lysed with RIPA buffer (Sigma R^0278) supplemented with Halt protease inhibitor cocktail (Thermo Fisher 78445) and clarified by centrifugation (16,000 g, 10 min, 4° C.). Protein concentration was determined by BCA assay (Thermo Fisher). Proteins were denatured in 1×LDS Buffer and 2.5% beta-mercaptoethanol (Sigma) for 10 min at 70° C., separated on Bolt 4-12% Bis-Tris Plus polyacrylamide gels (Thermo Fisher), transferred to PVDF membranes using the iBlot 2 Dry Blotting System, and blocked with 0.1% casein-PBS (Bio-Rad) for 1 h at room temperature. The blots were incubated with primary antibodies overnight at 4° C. in PBS containing 0.1% casein and 0.2% Tween-20. […] The blots were imaged using the Odyssey CLx imaging system and blots were analyzed on the ImageStudio software (LI-COR).
compound,measurement,setting,value
"COc1cc(-c2cc(=O)c3c(O)cc(O)cc3o2)ccc1O [CHR, Chrysoeriol]",Release of LPS-induced pro-inflammatory cytokines,[1],significantly blocked
same,"Anti-inflammatory effects, dose dependence",IL-6 secretion,dose-dependent
same,IκBα levels,IκBα,dose-dependently boosted
same,phosphorylated IκB S32,IκBα,remained unchanged

# Source: US20260199350A1, “FLAVONES, QUINOLINONES, QUINAZOLINONES, AND AURONES, AND USES IN CK2-MEDIATED DISEASES” (Salk Institute for Biological Studies, priority 2022, published 2026)
